Laboratory results as given in patent publication US8936941B2, “Compositions useful for cancer detection and treatment, a cancer stem cell model, and methods of production and use thereof” (priority 2008, dated 2015).

Legend:
let-7a miRNA [1] = experiment: pLet7a-Luc luciferase reporter gene assay in SW480 cells; assay type: cell-based, human; settings: normalized to Renilla luciferase
Method: (§1) Luciferase reporter gene assay. pLet7a-Luc reporter vector contains a let-7a miRNA specific binding site at the 3′UTR of the firefly (Photinus pyralis) luciferase gene obtained from Signosis Inc (FIG. 26). HCT116 and SW480 cells were transfected with the pLet7a-Luc reporter vector, Renilla luciferase expressing plasmid pRL-TK (Promega) along with DCAMKL-1 or scrambled siRNA using Transfectol™ (Ambion Inc.). Luciferase activity was determined as per the manufacturer's instructions (Dual-Luciferase Reporter Assay System; Promega) using a Monolight 2010 luminometer (Analytical Luminescence Laboratory, San Diego, Calif.) as described earlier [Stadler et al., 2008; Sossey-Alaoui et al., 1999]. The activity, normalized to Renilla Luciferase activity, is presented as relative luciferase units relative to control with ±SEM values. Assays were performed in triplicate wells and experiments were repeated 3 times.

let-7a miRNA [2] = experiment: pLet7a-Luc luciferase reporter gene assay in HCT116 cells; assay type: cell-based, human; settings: normalized to Renilla luciferase
Method: as §1

PICSC tumor xenografts = experiment: PICSC generated isograft tumor growth in mice; assay type: in vivo; settings: siRNA injected from day 15, 5 times at an interval of 3 days
Method: To determine whether targeted DCAMKL-1 downregulation and/or Notch inhibition affected […] generated isograft tumor growth, mice were treated with siRNA to DCAMKL-1 or the Notch inhibitor DAPT. After the tumors were allowed to develop (15 days), siRNA was injected a total of 5 times at an interval of 3 days as described earlier.

PICSCs [3] = experiment: LIVE/DEAD Viability/Cytotoxicity Assay on PICSCs; assay type: cell-based, mouse; settings: 48 hours, single agent
Method: This Example is directed to stem cell assays utilizing PICSCs generated in accordance with the presently disclosed and claimed inventive concept(s). The PICSCs were generated as described herein above (i.e., transformation of NIH-3T3 cells with RBM3 gene, followed by transplantation into a nude mouse, then sorting of cells obtained from generated tumors utilizing DCAMKL-1).
The PICSCs were exposed to various compounds/anti-cancer agents, and cell viability assays were then performed using the LIVE/DEAD® Viability/Cytotoxicity Assay from Molecular Probes/Invitrogen (Eugene, Oreg.). The LIVE/DEAD® Viability/Cytotoxicity Assay is an assay that provides a two-color fluorescence cell viability that is based on the simultaneous determination of both live and dead cells.
Briefly, PICSCs cells were grown in a 96 well microtitre plate ([…], Newton, N.C.) to about 40% confluency and treated with anti-cancer agents/compounds for 48 hours. Subsequently, chromogenic substrates Calcein AM and Ethidium homodimer-1 (EthD-1) was added to the cells. Calcein AM is well retained within the live cells, producing uniform green fluorescence in live cells (measured at 515 nM). EthD-1 enters cells with damaged membranes and undergoes an enhancement of fluorescence upon binding to nucleic acids, thereby producing a bright red fluorescence in dead cells (measured at 617 nM). The fluorescence measurement was carried out using a microtitre plate reader (Synergy HT, BIO-TEK, Vinooski, Vt.).
In FIGS. 70-84, the PICSCs were treated with increasing concentrations of various compounds or combinations of compounds for 48 hours, and the data presented therein is represented as a % Dead/Live cells ratio following said treatment. […] Values in each figure are given as average±Standard Error Mean, and asterisks denote statistically significant differences (*p<0.01) compared with control.

PICSCs [4] = experiment: Growth and survival of PICSCs after drug treatment; assay type: cell-based, mouse; settings: siRNA transfection, 10 nM
Method: The PICSCs cells were treated with 100 μM drug (suprapharmacological dose) for 48 hours, and their growth and survival were evaluated. […] Moreover, the in vitro testing strategies allows for a mechanistic study of such compounds.

si-DCAMKL-1: siRNA targeting the coding region of DCAMKL-1 (NM_004734), sequence GGGAGUGAGAACAAUCUAC (SEQ ID NO:3) (chemistry not given here; listed as Homo sapiens)
luciferase activity (let-7a binding site at 3' UTR) (let-7a miRNA [1]): dose dependent reduction | luciferase activity (let-7a binding site at 3' UTR) (let-7a miRNA [2]): dose dependent reduction | isograft tumor growth (PICSC tumor xenografts): growth arrest | PICSC cell death (% Dead/Live cells ratio) (PICSCs [3]): increasing levels of PICSC cell death | neurite formation, cell growth and cell death of PICSCs (PICSCs [4]): inhibited neurite formation, suppressed cell growth and induced cell death
